Test in all cases: GHS Ligand Binding Assay
The target of experiment [1] is Dimer of Growth hormone secretagogue receptor type 1 (Homo sapiens, UniProt Q92847). As for the experimental part:
(§1) Titration experimentswere carried out with protein concentrations in the 10 nM protein concentration range and increasing ligand concentrations. […] Buffer contributions were systematically subtracted.

Experiment [2] addresses Growth hormone secretagogue receptor type 1 (Homo sapiens, UniProt Q92847). As for the experimental part: as §1
The target in experiment [3] is Growth hormone secretagogue receptor type 1/Isoform 1B of Growth hormone secretagogue receptor type 1 (1B) (Homo sapiens, UniProt Q92847). The procedure: as §1

Where a SMILES comes first, the peptide text is derived from it. [ ]: non-standard residue; d: D form.

The text below walks through data of BindingDB's records for doi:10.1074/jbc.M113.453423 (Université Montpellier 1, 2013).

Growth hormone secretagogue receptor type 1, sequence (Q92847 whole entry, canonical isoform): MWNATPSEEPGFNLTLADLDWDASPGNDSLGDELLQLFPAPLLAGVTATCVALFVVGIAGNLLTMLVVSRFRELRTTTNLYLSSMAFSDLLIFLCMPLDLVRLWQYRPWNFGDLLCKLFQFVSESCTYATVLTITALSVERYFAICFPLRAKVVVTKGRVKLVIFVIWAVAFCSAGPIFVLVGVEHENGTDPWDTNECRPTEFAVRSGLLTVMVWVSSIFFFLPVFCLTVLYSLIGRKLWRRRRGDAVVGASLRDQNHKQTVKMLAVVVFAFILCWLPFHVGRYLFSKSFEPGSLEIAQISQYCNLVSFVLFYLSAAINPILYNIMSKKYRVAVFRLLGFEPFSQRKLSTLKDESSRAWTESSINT
Growth hormone secretagogue receptor type 1/Isoform 1B of Growth hormone secretagogue receptor type 1 (1B), sequence (Q92847 whole entry, canonical isoform): as above
Growth hormone secretagogue receptor type 1/Isoform 1B of Growth hormone secretagogue receptor type 1 (1B), sequence (Q92847 as listed by the source): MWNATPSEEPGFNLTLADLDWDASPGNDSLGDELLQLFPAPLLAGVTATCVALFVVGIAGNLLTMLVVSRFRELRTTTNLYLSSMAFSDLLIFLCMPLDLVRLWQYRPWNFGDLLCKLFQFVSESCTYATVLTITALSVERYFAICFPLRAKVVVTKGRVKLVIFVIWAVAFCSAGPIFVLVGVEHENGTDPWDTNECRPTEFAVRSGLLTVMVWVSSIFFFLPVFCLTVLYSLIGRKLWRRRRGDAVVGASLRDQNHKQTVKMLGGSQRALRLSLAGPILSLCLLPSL
Dimer of Growth hormone secretagogue receptor type 1, sequence (Q92847 whole entry): as the sequence (Q92847 whole entry, canonical isoform) above

As to `COc1ccc(Cn2c(CCc3ccccc3)nnc2C(Cc2c[nH]c3ccccc23)NC(=O)c2ccccn2)c(OC)c1` (configuration not stated) [JMV 3002], the Ki worked out at 9.9 nM in experiment [1], 9.2 nM in experiment [2] and 19.3 nM in experiment [3].
Take `COc1ccc(Cn2c(CCc3c[nH]c4ccccc34)nnc2C(Cc2c[nH]c3ccccc23)NC(=O)c2ccccn2)c(OC)c1` (configuration not stated) [JMV 3011]: the Ki in experiment [2] turned out to be 8.3 nM.
With `CC(C)C[C@H](NC(=O)[C@H](CC(C)C)NC(=O)[C@@H](Cc1c[nH]c2ccccc12)NC(=O)[C@H](Cc1ccccc1)NC(=O)[C@@H](Cc1c[nH]c2ccccc12)NC(=O)[C@H](CCC(N)=O)NC(=O)[C@@H](Cc1c[nH]c2ccccc12)NC(=O)[C@@H]1CCCN1C(=O)[C@H](CCCCN)NC(=O)[C@@H]1CCCN1C(=O)[C@H](N)CCCN=C(N)N)C(N)=O` [Substance P [DArg1, DTrp5,7,9,  Leu11]] (H-[dR]PKP[dW]Q[dW]F[dW]LL-NH2), the figures for the Ki in experiment [1], in experiment [2] and in experiment [3] were 286 nM, 294 nM and 292 nM, respectively.
